Columns and labels:
Test in all cases: relative viability (nuclei count vs DMSO), 5 days (fraction); higher = more cells survive
[1] = compound: C1CC(C2=C(C1)C3=C(N2)C=CC(=C3)Cl)C(=O)N [Selisistat] + O=C(CCCCCCC(=O)Nc1ccccc1)NO [Vorinostat] (partner 1 µM)
Method in brief: (§1)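 Lung cancer cell lines, seeded in 1536-well plates, were treated the following day by pin tool with a single drug or with five library-drug doses (not always all listed) in √10 steps on top of a fixed anchor-drug dose. Cells were fixed and nuclei stained in one step after 5 days, and nuclei were counted. Relative viability is the nuclei count for treated wells divided by that for vehicle wells, reported as medians of duplicate plates.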

[2] = compound: c1ccc2c(CCNc3ccc(Nc4ccncc4)cc3)c[nH]c2c1 [Serdemetan] + Cc1cc(Nc2cc(N3CCN(C)CC3)nc(Sc3ccc(NC(=O)C4CC4)cc3)n2)n[nH]1 [Tozasertib] (partner 0.1 µM)
Method in brief: as §1

[3] = compound: c1ccc2c(CCNc3ccc(Nc4ccncc4)cc3)c[nH]c2c1 [Serdemetan] + O=C(c1cc(Cc2n[nH]c(=O)c3ccccc23)ccc1F)N1CCN(C(=O)C2CC2)CC1 [Olaparib] (partner 8 µM)
Method in brief: as §1

[4] = compound: c1ccc2c(CCNc3ccc(Nc4ccncc4)cc3)c[nH]c2c1 [Serdemetan] + CCNC(=O)c1noc(-c2cc(C(C)C)c(O)cc2O)c1-c1ccc(CN2CCOCC2)cc1 [Luminespib] (partner 0.01 µM)
Method in brief: as §1

Row | Cell Line | relative viability ([1]; first compound 0.4 µM) | relative viability ([1]; first compound 1.265 µM) | relative viability ([1]; first compound 4 µM) | relative viability ([1]; first compound 12.65 µM) | relative viability ([1]; first compound 40 µM) | relative viability ([2]; first compound 0.04 µM) | relative viability ([2]; first compound 0.1265 µM) | relative viability ([2]; first compound 0.4 µM) | relative viability ([2]; first compound 1.265 µM) | relative viability ([2]; first compound 4 µM) | relative viability ([3]; first compound 0.04 µM) | relative viability ([3]; first compound 0.1265 µM) | relative viability ([3]; first compound 0.4 µM) | relative viability ([3]; first compound 1.265 µM) | relative viability ([3]; first compound 4 µM) | relative viability ([4]; first compound 0.04 µM) | relative viability ([4]; first compound 0.1265 µM) | relative viability ([4]; first compound 0.4 µM) | relative viability ([4]; first compound 1.265 µM) | relative viability ([4]; first compound 4 µM)
1 | NCI-H650 | 0.396 | 0.438 | 0.632 | 0.481 | 0.548 | 0.661 | 0.679 | 0.803 | 0.642 | 0.581 | 0.379 | 0.362 | 0.365 | 0.271 | 0.285 | 0.659 | 0.875 | 0.732 | 0.576 | 0.505
2 | COR-L23 | 0.499 | 0.49 | 0.577 | 0.515 | 0.573 | 0.236 | 0.201 | 0.224 | 0.174 | 0.165 | 0.316 | 0.324 | 0.386 | 0.313 | 0.289 | 0.724 | 0.639 | 0.644 | 0.631 | 0.432
3 | COR-L 105 | 0.892 | 0.846 | 0.876 | 0.964 | 1.21 | 0.313 | 0.336 | 0.357 | 0.405 | 0.366 | 0.774 | 0.677 | 0.542 | 0.603 | 0.565 | 1.3 | 0.911 | 0.64 | 0.693 | 0.588
4 | LK-2 | 0.396 | 0.308 | 0.376 | 0.339 | 0.365 | 0.171 | 0.176 | 0.194 | 0.207 | 0.168 | 0.715 | 0.645 | 0.782 | 0.444 | 0.57 | 0.18 | 0.172 | 0.191 | 0.161 | 0.2
5 | 201T | 1.07 | 0.98 | 0.85 | 1 | 0.995 | 0.983 | 0.939 | 0.925 | 0.787 | 0.497 | 0.821 | 0.8 | 0.822 | 0.543 | 0.492 | 1.05 | 1.07 | 1.03 | 0.895 | 0.692
6 | HCC-44 | 1.08 | 1.09 | 1.21 | 1.24 | 1.24 | 1 | 1.04 | 0.765 | 0.915 | 0.869 | 0.94 | 0.943 | 0.979 | 0.851 | 0.815 | 0.894 | 1.08 | 1.01 | 0.906 | 0.901
7 | NCI-H596 | 0.698 | 0.609 | 0.521 | 0.75 | 0.773 | 0.825 | 0.787 | 0.774 | 0.513 | 0.34 | 0.694 | 0.657 | 0.517 | 0.532 | 0.475 | 1.02 | 0.955 | 0.861 | 0.59 | 0.602
8 | H3255 | 0.885 | 0.93 | 0.822 | 0.834 | 0.872 | 0.678 | 0.693 | 0.629 | 0.626 | 0.556 | 0.559 | 0.529 | 0.527 | 0.508 | 0.566 | 0.913 | 1.02 | 0.783 | 0.994 | 0.669

Reference: the supplement of paper PMC10307832
